According to article PMC4853715, “Design, Synthesis and Antitumor Activity of Novel link-bridge and B-Ring Modified Combretastatin A-4 (CA-4) Analogues as Potent Antitubulin Agents” (Scientific Reports, 2016):

Key:
A549 cells [1] = assay: Detection of intracellular ROS (DCFH-DA flow cytometry); type: cell-based, human; settings: A549, versus control cells and positive control
Method: Intracellular ROS production was measured by use of active oxygen species assay kit (K0111, Beyotime, China). […] After 30 min of incubation in the darkness, cells were washed with DMEM for three times, and then fluorescent intensity was measured by the flow cytometer with excitation and emission wavelengths of 488 and 525 nm, respectively.

[2] = tested on: Bax, PARP, Bcl-2, Caspase3 in A549 cells; assay: Western blot of apoptosis-related proteins; type: cell-based, human
Method: (§1) Total cellular proteins are extracted with lysis buffer (50 mmol/l Tris [pH 7.4], 150 mmol/l NaCl, 1% Triton X-100, 1% deoxycholicphenyl methylsulfonyl fluoride, 1 mg/ml aprotinin, 5.0 mmol/l sodium pyrophosphate, […] leupeptin, 0.1 mmol/l phenylmethylsulfonyl fluoride, and 1 mmol/l DTT). Protease inhibitors are added immediately before use. The cells are harvested at the end of treatment and extracted for western blot analysis as described previously. After washing twice with PBS, the cultured cells were collected and lysed in lysis buffer (100 mmol/l Tris-Cl, pH 6.8, 4% (m/v) SDS, 20% (v/v) glycerol, 200 mmol/l β-mercaptoethanol, 1 mmol/l phenylmethylsulfonyl fluoride, and […] aprotinin). The lysates were centrifuged at 13,000 × g for 15 min at 4 °C. The concentration of total proteins was measured using the BCA assay method with Varioskan spectrofluorometer and spectrophotometer (Thermo) at 562 nm. Protein samples were separated with 15% SDS-PAGE and transferred onto the polyvinyldifluoride (PVDF) membranes (Millipore, IPVH 304 F0). Immune complexes were formed by incubation of proteins with primary antibodies overnight at 4 °C followed by IRDye^TM 800 conjugated second antibody for 1 hour at 37 °C. Immunoreactive protein bands were detected with an Odyssey Scanning System (LI-COR Biosciences, 9201-03). Antibodies: primary antibodies of cyclin B1, Cdc2, p-Cdc2 (Thr14/Tyr15), Cdc25C, and p21WAF1/Cip1 were all obtained from EPITOMICS (Abcam, Cambridge, UK); antibodies of Bax and Bcl-2 were obtained from Bioworld (Bioworld Technology, Inc., MN, USA); antibodies of caspase-3, and PARP were all obtained from Santa Cruz (Santa Cruz, CA); and antibody of GAPDH was from Boster (Wuhan, China). The secondary antibodies peroxidase-conjugated affinipure Goat Anti-Mouse IgG (H + L) (111-035-003), peroxidase-conjugated affinipure Goat Anti-Rabbit IgG (H + L) (111-035-003) were obtained from Jackson Immuno Research Laboratories, Inc. (USA).

[3] = tested on: 293T, Macrophage, and L02; assay: MTT assay on non-cancer cell lines; type: cell-based, human
A549 cells [4] = assay: Apoptosis assay, Annexin V-FITC/PI flow cytometry; type: cell-based, human; settings: A549, 0.8 μM
Method: The percentages of apoptotic cells were estimated by staining with Annexin-V-FITC and with a PI Apoptosis Detection Kit (KGA105, Keygen biotech, China) according to the manufacturer’s instructions with some modifications. In brief, collected cells were washed once with PBS and subsequently washed once with binding buffer, and then stained with Annexin V-FITC and propidium iodide (PI) in the binding buffer for 20 min at room temperature in the dark. Apoptotic cells were quantified using a […] plotting at least 10,000 events per sample. To quantify the data, the frequencies in all quadrants were analyzed using flowjo 7.6.1 software. Both early apoptotic (Annexin V-positive, PI-negative) and late apoptotic (double positive of Annexin V and PI) cells were detected.

A549 xenograft tumor = assay: In vivo anti-tumor activity, A549 xenograft; set-up: species or system BALB/c nude mice; settings: for average weight of the excised tumors: control group 1.802 g; for tumor growth reduction versus vehicle at end of observation: intraperitoneal, every other day
Method: Mice were subcutaneously inoculated with injections of 5.0 × 10^6 cells/nude mice. After 12–14 days, tumor sizes were determined using micrometer calipers, and then nude mice with similar tumor volume (~100 mm^3, eliminate mice with tumors that are too large or too small) were randomly divided them into four groups (with six nude mice/group). […] Both drugs, as well as the vehicle control, were administered every other day for the entire period of observation.
Male BALB/c nude mice, five weeks old and weighing 18–22 g, were supplied by Shanghai Laboratory Animal Limited Company. The mice were raised in air-conditioned rooms under controlled lighting (12 h light-dark cycle at 24 °C) and were fed with standard laboratory food and water ad libitum. Before injection into the mice, the A549 cells were harvested by trypsinization and washed three times with cold serum-free medium and then injected in a total volume of 0.1 mL using a 1 mL latex-free syringe (BD) within 30 min of harvest. Mice were inoculated subcutaneously with A549 cells (5.0 × 10^6) on their shoulders. […] The control group received 0.9% normal saline. Tumor size was measured once every 2 days in two per-pendicular dimensions with Vernier calipers and converted to tumor volume (TV) using the formula: (ab^2)/2, where a and b refer to the longer and shorter dimensions, respectively. The body weight of the animals was measured twice a week to assess toxicity of the treatments at the same time as the tumor dimension measurement and the mortality was monitored daily. After the treatments for eight weeks, the animals were euthanized by cervical dislocation. This study conformed to the Guide for the Care and Use of Laboratory Animals as published by the US National Institutes of Health and was approved by the Institutional Ethics Review Board of Nanjing University.

[5] = tested on: Cyclin B1, Cdc25c, Cdc2, P21 in A549 cells; assay: Western blot of G2/M-related proteins; type: cell-based, human; settings: A549, 0.5-2.0 μM 48 h; 3.0 μM 12-48 h
Method: as §1

COc1cc(/C=N/NC(=O)c2cn(Cc3ccccc3)c3ccccc23)cc(OC)c1OC [Compound 7]
intracellular ROS production (A549 cells [1]): induced the production of significant amounts of ROS
level of Bax ([2]; A549, 0.5, 1 and 2 μM, 48 h): efficiently up-regulated
level of anti-apoptotic proteins (Bcl-2, Bcl-xl) ([2]; A549, 0.5, 1 and 2 μM, 48 h): down-regulated
cleaved caspase-3 and PARP ([2]; A549, 48 h): up regulation
cytotoxic effects on three normal human cells (in words) [3]: minimal
early apoptosis (Q3) (A549 cells [4]; 12 h): 1.84%
total percentage of early and late apoptotic cells (A549 cells [4]; 24 h): 33.05%
total percentage of early and late apoptotic cells (A549 cells [4]; 48 h): 77.2%
average weight of the excised tumors (A549 xenograft tumor; 20 mg/kg group): 0.951 g
tumor growth reduction versus vehicle at end of observation (A549 xenograft tumor; 20 mg/kg): 47%
average weight of the excised tumors (A549 xenograft tumor; 30 mg/kg group): 0.553 g
tumor growth reduction versus vehicle at end of observation (A549 xenograft tumor; 30 mg/kg): 70%
cdc25c expression [5]: down-regulated in a dose-dependent and time-dependent manner
cyclinB1 expression [5]: down-regulated in a dose-dependent and time-dependent manner
p21 expression [5]: increased
